Literature values, collected in patent US9597377B2, “Stable formulations of purified proteins” (MOUNT SINAI SCHOOL OF MEDICINE OF NEW YORK UNIVERSITY, priority 2003, dated 2017).
Substitutions are numbered along the chain they refer to.

Tests used:
[1] = biological target: T1, mutant α-Gal A (R301Q) (Homo sapiens, UniProt P06280, R301Q); settings: neutral pH; cited from earlier work
T1 sequence (P06280 32-429 R301Q): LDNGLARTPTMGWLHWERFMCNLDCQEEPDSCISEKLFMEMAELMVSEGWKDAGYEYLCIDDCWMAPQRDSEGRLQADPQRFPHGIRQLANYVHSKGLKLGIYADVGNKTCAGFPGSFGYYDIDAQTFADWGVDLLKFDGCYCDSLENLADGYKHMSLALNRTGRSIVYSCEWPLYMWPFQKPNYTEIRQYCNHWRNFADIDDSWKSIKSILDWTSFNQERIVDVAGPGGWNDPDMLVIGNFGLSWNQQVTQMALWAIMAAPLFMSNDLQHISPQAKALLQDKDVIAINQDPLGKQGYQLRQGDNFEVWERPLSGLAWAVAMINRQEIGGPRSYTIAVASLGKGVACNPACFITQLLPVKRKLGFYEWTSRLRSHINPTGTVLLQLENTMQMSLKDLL

[2] = system: lymphoblasts established from Fabry patients with R301Q or Q279E mutations; settings: cited from earlier work
[3] = biological target: T2, mutant (R301Q) α-Gal A (Homo sapiens, UniProt P06280, R301Q); settings: oral administration, transgenic mice overexpressing mutant (R301Q) α-Gal A; cited from earlier work
T2 construct: host or cells: transgenic mice overexpressing the mutant enzyme; activity measured in major organs
T2 sequence (P06280 32-429 R301Q): T1 sequence (P06280 32-429 R301Q)

[4] = biological target: T3, wild-type α-Gal A in COS-7 cells (Homo sapiens, UniProt P06280); settings: COS-7 cells transfected with vector coding wild-type α-Gal A; cited from earlier work
T3 construct: expressed in transfected cells; host or cells: COS-7 cells
T3 sequence (P06280 32-429): T1 sequence (P06280 32-429 R301Q) with Q270R

OC[C@H]1NC[C@H](O)[C@@H](O)[C@H]1O [DGJ, 1-deoxygalactonojirimycin]
in vitro stability of mutant α-Gal A (R301Q) [1]: effectively increased in vitro stability
mutant enzyme activity in lymphoblasts [2]: enhanced the mutant enzyme activity
enzyme activity in major organs [3]: substantially elevated the enzyme activity
amount and activity of wild-type α-Gal A [4]: increase the amount and activity
